Target: recombinant DYRK1A kinase (Homo sapiens, UniProt Q13627)
Experiment: DYRK1A kinase assay (Ser/Thr 18 peptide Z-lyte FRET)
Format: biochemical
Conditions: DYRK1A 0.25 μg/mL, ATP 15 μM, Ser/Thr peptide 18 4 μM, one hour at room temperature, 11-point dose-response from 10 μM
Method: Representative compounds were screened using the assay procedure for DYRK1A kinase activity as described below.
Each compound was dissolved in DMSO as a 10 mM stock and used to prepare compound source plates. Serial dilution (1:3, 11-point dose-response curves from 10 μM to 0.00016 μM) and compound transfer was performed using the ECHO 550 (Labcyte, Sunnyvale, CA) into 1536-well black-walled round bottom plates (Corning).
The DYRK1A kinase assay was run using the Ser/Thr 18 peptide Z-lyte assay kit according to manufacturer's instructions (Life Technologies—a Division of Thermo-Fisher). This is a non-radioactive assay using fluorescence resonance energy transfer (FRET) between coumarin and fluorescein to detect kinase activity which is represented as a ratio of coumarin emission/fluorescein emission.
Briefly, recombinant DYRK1A kinase, ATP and Ser/Thr peptide 18 were prepared in 1× Kinase buffer to final concentrations of 0.25 μg/mL, 15 μM, and 4 μM respectively. The mixture was allowed to incubate with the representative compounds for one hour at room temperature. All reactions were performed in duplicate. Unphosphorylated (“0% Control”) and phosphorylated (“100% control”) forms of Ser/Thr 18 served as control reactions. Additionally, an 11-point dose-response curve of Staurosporine (1 uM top) was run to serve as a positive compound control.
After incubation, Development Reagent A was diluted in Development Buffer then added to the reaction and allowed to further incubate for one hour at room temperature. The plate was read at Ex 400 Em 455 to detect the coumarin signal and Ex 400 Em 520 to measure the signal (EnVision Multilabel Plate Reader, PerkinElmer).
The Emission ratio (Em) was calculated as a ratio of the coumarin (C) emission signal (at 445 nm)/Fluorescein (F) emission signal (at 520 nm). The percent phosphorylation was then calculated using the following formula: [1−((Em ratio×F100%)−C100%)/((C0%−C100%)+(Em ratio×(F100%−F0%)))]. Dose-response curves were generated, and inhibitory concentration (IC50) values were calculated using non-linear regression curve fit in the Dotmatics' Studies Software (Bishops Stortford, UK).

IC50	Structure (SMILES)
3.1 nM	Nc1nc(N[C@H]2CCN(C3COC3)C[C@H]2F)nn2cc(F)c(-c3ccc4nccn4n3)c12 [Compound 39, 6-Fluoro-N2-((3R,4S)-3-fluoro-1-(oxetan-3-yl)piperidin-4-yl)-5-(imidazo[1,2-b]pyridazin-6-yl)pyrrolo[2,1-f][1,2,4]triazine-2,4-diamine]
2.7 nM	CN1CC[C@@H](Nc2nc(N)c3c(-c4ccc5nccn5n4)c(F)cn3n2)C(F)(F)C1 [Compound 40, (R)—N2-(3,3-Difluoro-1-methylpiperidin-4-yl)-6-fluoro-5-(imidazo[1,2-b]pyridazin-6-yl)pyrrolo[2,1-f][1,2,4]triazine-2,4-diamine]
2 nM	CC(=O)N1CC[C@@H](Nc2nc(N)c3c(-c4ccc5nccn5n4)c(F)cn3n2)C(F)(F)C1 [Compound 41, (R)-1-(4-((4-Amino-6-fluoro-5-(imidazo[1,2-b]pyridazin-6-yl)pyrrolo[2,1-f][1,2,4]triazin-2-yl)amino)-3,3-difluoropiperidin-1-yl)ethan-1-one]
3 nM	CNc1nc(N[C@@H]2CCN(C(C)=O)CC2(F)F)nn2ccc(-c3ccc4nccn4n3)c12 [Compound 46, (R)-1-(3,3-Difluoro-4-((5-(imidazo[1,2-b]pyridazin-6-yl)-4-(methylamino)pyrrolo[2,1-f][1,2,4]triazin-2-yl)amino)piperidin-1-yl)ethan-1-one]
2.5 nM	CNc1nc(N[C@H]2CCN(C(C)=O)C[C@H]2F)nn2cc(F)c(-c3ccc4nccn4n3)c12 [Compound 53, 1-((3R,4S)-3-Fluoro-4-((6-fluoro-5-(imidazo[1,2-b]pyridazin-6-yl)-4-(methylamino)pyrrolo[2,1-f][1,2,4]triazin-2-yl)amino)piperidin-1-yl)ethan-1-one]
2.4 nM	CNc1nc(N[C@H]2CCN(C3COC3)C[C@H]2F)nn2cc(F)c(-c3ccc4nccn4n3)c12 [Compound 54, 6-Fluoro-N^2-((3R,4S)-3-fluoro-1-(oxetan-3-yl)piperidin-4-yl)-5-(imidazo [1,2-b]pyridazin-6-yl)-N^4-methylpyrrolo[2,1-f][1,2,4]triazine-2,4-diamine]
4 nM	CNc1nc(N[C@@H]2CCN(C)CC2(F)F)nn2cc(F)c(-c3ccc4nccn4n3)c12 [Compound 55, (R)—N^2-(3,3-Difluoro-1-methylpiperidin-4-yl)-6-fluoro-5-(imidazo[1,2-b]pyridazin-6-yl)-N^4-methylpyrrolo[2,1-f][1,2,4]triazine-2,4-diamine]
0.8 nM	CN1CC[C@H](Nc2nc(N)c3c(-c4ccc5ncn(CCF)c5n4)ccn3n2)[C@H](F)C1 [Compound 113, N^2-((3R,4S)-3-Fluoro-1-methylpiperidin-4-yl)-5-(3-(2-fluoroethyl)-3H-imidazo[4,5-b]pyridin-5-yl)pyrrolo[2,1-f][1,2,4]triazine-2,4-diamine]
1.6 nM	COCCN1CC[C@H](Nc2nc(N)c3c(-c4ccc5ncn(CCF)c5n4)ccn3n2)[C@H](F)C1 [Compound 114, N^2-((3R,4S)-3-Fluoro-1-(2-methoxyethyl)piperidin-4-yl)-5-(3-(2-fluoroethyl)-3H-imidazo[4,5-b]pyridin-5-yl)pyrrolo[2,1-f][1,2,4]triazine-2,4-diamine]
1 nM	CC(=O)N1CC[C@H](Nc2nc(N)c3c(-c4ccc5ncn(CCF)c5n4)ccn3n2)[C@H](F)C1 [Compound 115, 1-((3R,4S)-4-((4-Amino-5-(3-(2-fluoroethyl)-3H-imidazo[4,5-b]pyridin-5-yl)pyrrolo[2,1-f][1,2,4]triazin-2-yl)amino)-3-fluoropiperidin-1-yl)ethan-1-one]
0.9 nM	Nc1nc(N[C@H]2CCN(C3COC3)C[C@H]2F)nn2ccc(-c3ccc4ncn(CCF)c4n3)c12 [Compound 117, N^2-((3R,4S)-3-Fluoro-1-(oxetan-3-yl)piperidin-4-yl)-5-(3-(2-fluoroethyl)-3H-imidazo[4,5-b]pyridin-5-yl)pyrrolo[2,1-f][1,2,4]triazine-2,4-diamine]
0.5 nM	CC(=O)N1CC[C@@H](Nc2nc(N)c3c(-c4ccc5ncn(CCF)c5n4)ccn3n2)C(F)(F)C1 [Compound 118, (R)-1-(4-((4-Amino-5-(3-(2-fluoroethyl)-3H-imidazo[4,5-b]pyridin-5-yl)pyrrolo[2,1-f][1,2,4]triazin-2-yl)amino)-3,3-difluoropiperidin-1-yl)ethan-1-one]

The next lines start with the compound.

Structure (SMILES)	IC50
CC(=O)N1CC[C@H](Nc2nc(N)c3c(-c4ccc5nccn5n4)c(F)cn3n2)[C@H](F)C1 [Compound 38, 1-((3R,4S)-4-((4-Amino-6-fluoro-5-(imidazo[1,2-b]pyridazin-6-yl)pyrrolo [2,1-f][1,2,4]triazin-2-yl)amino)-3-fluoropiperidin-1-yl)ethan-1-one]	3.4 nM
Nc1nc(N[C@@H]2CCN(C3COC3)CC2(F)F)nn2cc(F)c(-c3ccc4nccn4n3)c12 [Compound 43, (R)—N2-(3,3-Difluoro-1-(oxetan-3-yl)piperidin-4-yl)-6-fluoro-5-(imidazo [1,2-b]pyridazin-6-yl)pyrrolo[2,1-f][1,2,4]triazine-2,4-diamine]	3.1 nM
CNc1nc(N[C@@H]2CCN(S(C)(=O)=O)CC2(F)F)nn2ccc(-c3ccc4nccn4n3)c12 [Compound 48, (R)—N2-(3,3-Difluoro-1-(methylsulfonyl)piperidin-4-yl)-5-(imidazo[1,2-b]pyridazin-6-yl)-N4-methylpyrrolo[2,1-f][1,2,4]triazine-2,4-diamine]	2.2 nM
CNc1nc(N[C@@H]2CCN(C(C)=O)CC2(F)F)nn2cc(F)c(-c3ccc4nccn4n3)c12 [Compound 56, (R)-1-(3,3-Difluoro-4-((6-fluoro-5-(imidazo[1,2-b]pyridazin-6-yl)-4-(methylamino)pyrrolo[2,1-f][1,2,4]triazin-2-yl)amino)piperidin-1-yl)ethan-1-one]	1.4 nM
CNc1nc(N[C@@H]2CCN(C3COC3)CC2(F)F)nn2cc(F)c(-c3ccc4nccn4n3)c12 [Compound 58, (R)—N^2-(3,3-Difluoro-1-(oxetan-3-yl)piperidin-4-yl)-6-fluoro-5-(imidazo[1,2-b]pyridazin-6-yl)-N^4-methylpyrrolo[2,1-f][1,2,4]triazine-2,4-diamine]	1.9 nM
C[C@]1(O)CC[C@H](Nc2nc(N)c3c(-c4ccc5ncn(CCF)c5n4)ccn3n2)CC1 [Compound 112, (1r,4r)-4-((4-Amino-5-(3-(2-fluoroethyl)-3H-imidazo[4,5-b]pyridin-5-yl)pyrrolo[2,1-f][1,2,4]triazin-2-yl)amino)-1-methylcyclohexan-1-ol]	1.2 nM
Nc1nc(N[C@@H]2CCN(C3COC3)C[C@@H]2F)nn2ccc(-c3ccc4ncn(CCF)c4n3)c12 [Compound 116, N^2-((3S,4R)-3-Fluoro-1-(oxetan-3-yl)piperidin-4-yl)-5-(3-(2-fluoroethyl)-3H-imidazo[4,5-b]pyridin-5-yl)pyrrolo[2,1-f][1,2,4]triazine-2,4-diamine]	1.6 nM
Nc1nc(N[C@@H]2CCN(C3COC3)CC2(F)F)nn2ccc(-c3ccc4ncn(CCF)c4n3)c12 [Compound 119, (R)—N^2-(3,3-Difluoro-1-(oxetan-3-yl)piperidin-4-yl)-5-(3-(2-fluoroethyl)-3H-imidazo[4,5-b]pyridin-5-yl)pyrrolo[2,1-f][1,2,4]triazine-2,4-diamine]	1.4 nM
